Test results taken from article PMC10758781 (Heliyon, 2023).
Read-outs that look alike come from different tables or passages of the source. *1 amine or outer side, *2 acyl side, *3 side chain or, on linkers, in order; H or OH if unused. Where a SMILES comes first, the peptide text is derived from it. Bridges are numbered along the chain shown (N, C = ends). Roman numbers before positions name the chains, in order. [ ]: non-standard residue; d: D form. Actinocin(9to1) = Cc1c2oc3c(C)ccc(C(=O)[*:1])c3nc-2c(C(=O)[*:2])c(N)c1=O; NMeV = CN[C@H](C(=O)O)C(C)C; Sar = CNCC(=O)O

Tests used:
ERβ [1] = molecular target: T1, ERβ (Homo sapiens, UniProt Q92731); format: cell-based; details: for decrease of E2-induced stimulation of dsRED2 mRNA / decrease of basal dsRED2 mRNA transcription: 2-h, 4HT, ICI, PHTTP 1 μM, ActD 1 μg/ml, Flavo 100 nM; for decrease of E2-induced stimulation of dsRED2 mRNA: plus E2 10 nM; for decrease of basal dsRED2 mRNA transcription: without E2
ERβ LBD = ERβ LBD only, without NLS; ref ToxCast [23]; cited from earlier work
zERβ2 = format: in vivo, zebrafish; details: 3 dpf; for Liver GFP signal, number of zebrafish: total fish in next column
zebrafish = details: 3 dpf; for Toxicity, number of zebrafish: total fish in next column
ERβ [2] = molecular target: T1, ERβ; format: cell-based; details: for effect on array size and dsRED2 features (in words): EPA45 library, 6-point dose-response; for activity in GFP-ERβ:PRL-HeLa, EPA45 batch received: first batch of EPA45 chemicals
[3] = system: zebrafish ERs (zERα, zERβ1, and zERβ2); format: in vivo; details: 3 dpf
[4] = system: zebrafish ERs (zERα, zERβ1, and zERβ2); details: read-out: EC50 in ERE:GFP zebrafish; previously published results; ref [36],[37]; cited from earlier work
zERα = molecular target: T2, zERα (Danio rerio, UniProt P57717); format: in vivo, zebrafish; details: 3 dpf
T2 sequence (P57717 1-569): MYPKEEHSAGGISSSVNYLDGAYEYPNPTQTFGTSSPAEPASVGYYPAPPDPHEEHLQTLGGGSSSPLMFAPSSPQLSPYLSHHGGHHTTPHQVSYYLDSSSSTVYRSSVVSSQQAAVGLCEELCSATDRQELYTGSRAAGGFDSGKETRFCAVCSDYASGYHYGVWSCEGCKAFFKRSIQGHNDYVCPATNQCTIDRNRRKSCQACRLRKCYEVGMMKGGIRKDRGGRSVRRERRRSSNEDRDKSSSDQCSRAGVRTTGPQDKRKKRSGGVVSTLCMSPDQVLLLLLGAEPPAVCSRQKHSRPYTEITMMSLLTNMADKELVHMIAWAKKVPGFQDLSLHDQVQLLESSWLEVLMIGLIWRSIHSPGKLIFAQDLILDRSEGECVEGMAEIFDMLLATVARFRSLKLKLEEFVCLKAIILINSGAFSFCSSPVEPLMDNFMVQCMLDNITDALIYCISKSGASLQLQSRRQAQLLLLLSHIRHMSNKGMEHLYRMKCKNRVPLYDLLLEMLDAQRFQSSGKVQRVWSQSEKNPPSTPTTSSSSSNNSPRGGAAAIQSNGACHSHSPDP

[5] = time course, E2 10 nM, 4HT 100 nM
[6] = both concentrations tested (2 and 20 μM)

T1 sequence (Q92731 whole entry, the tested form may be a part): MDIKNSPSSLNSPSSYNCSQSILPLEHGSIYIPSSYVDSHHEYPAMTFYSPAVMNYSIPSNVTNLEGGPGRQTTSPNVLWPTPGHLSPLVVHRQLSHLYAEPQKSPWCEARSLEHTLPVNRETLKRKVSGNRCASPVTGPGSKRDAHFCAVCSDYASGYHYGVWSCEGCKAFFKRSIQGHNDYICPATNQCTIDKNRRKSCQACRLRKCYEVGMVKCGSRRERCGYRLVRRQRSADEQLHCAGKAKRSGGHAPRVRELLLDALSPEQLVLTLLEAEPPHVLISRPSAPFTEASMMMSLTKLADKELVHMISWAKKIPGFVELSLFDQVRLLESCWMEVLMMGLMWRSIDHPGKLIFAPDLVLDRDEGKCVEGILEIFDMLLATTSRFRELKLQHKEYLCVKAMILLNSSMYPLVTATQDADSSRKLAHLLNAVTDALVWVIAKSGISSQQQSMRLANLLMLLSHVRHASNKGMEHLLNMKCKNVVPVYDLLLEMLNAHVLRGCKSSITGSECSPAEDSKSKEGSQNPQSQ

In the case of `Cc1c2oc3c(C)ccc(C(=O)N[C@@H]4C(=O)N[C@H](C(C)C)C(=O)N5CCC[C@H]5C(=O)N(C)CC(=O)N(C)[C@@H](C(C)C)C(=O)O[C@@H]4C)c3nc-2c(C(=O)N[C@@H]2C(=O)N[C@H](C(C)C)C(=O)N3CCC[C@H]3C(=O)N(C)CC(=O)N(C)[C@@H](C(C)C)C(=O)O[C@@H]2C)c(N)c1=O` [actinomycin D] (I: T[dV]P[Sar][NMeV] / II: T[dV]P[Sar][NMeV]; ester I:1-I:C, II:1-II:C; linker I:N-II:N via Actinocin(9to1)), the “decrease of E2-induced stimulation of dsRED2 mRNA” value (“decrease … of dsRED2 mRNA” below) (ERβ [1]) is reported as > 2 fold and the “decrease of basal dsRED2 mRNA transcription” value (ERβ [1]) is reported as > 2 fold.
With `CN1CC[C@H](c2c(O)cc(O)c3c(=O)cc(-c4ccccc4Cl)oc23)[C@H](O)C1` [flavopirodol] the “decrease … of dsRED2 mRNA” value (ERβ [1]) was > 2 fold and the “decrease of basal dsRED2 mRNA transcription” value (ERβ [1]) was > 2 fold.
In the case of `COc1ccc(C(c2ccc(OC)cc2)C(Cl)(Cl)Cl)cc1` [methoxychlor], the “activity in BiFC ERβ dimerization assay” value (ERβ LBD) is given as “hits”.
In the case of `OC(c1ccc(Cl)cc1)(c1ccc(Cl)cc1)C(Cl)(Cl)Cl` [dicofol], the “activity in BiFC ERβ dimerization assay” value (ERβ LBD) is listed as “hits”.
For `O=c1c(O)c(-c2ccc(O)cc2)oc2cc(O)cc(O)c12` [Kaempferol], the “Liver (zERβ/hERα), zebrafish with GFP signal / total” value (shortened to “Liver … with GFP signal / total”) (zERβ2; 2 μM) was 0/18, the “Liver … with GFP signal / total” value (zERβ2; 20 μM) was 0/18 and the “Dead/Abnormal zebrafish / total” value (zebrafish; 2 μM) was 0/18. The “Dead/Abnormal zebrafish / total” value (zebrafish; 20 μM) was 0/18.
For `C[C@@H]1C[C@@H]([C@H](O)CC2CC(=O)NC(=O)C2)C(=O)[C@@H](C)C1` [Cycloheximide], the “effect on array size and dsRED2 features (in words)” value (“effect” for short) (ERβ [2]; 2-h) was “showed response in both features”, the “Liver … with GFP signal / total” value (zERβ2; 2 μM) was 0/18 and the “Liver … with GFP signal / total” value (zERβ2; 20 μM) was 1/18. The “activity in BiFC ERβ dimerization assay” value (ERβ LBD) was “no effect”, the “Dead/Abnormal zebrafish / total” value (zebrafish; 2 μM) was 0/18 and the “Dead/Abnormal zebrafish / total” value (zebrafish; 20 μM) was 8/18. The “toxicity in zebrafish (in words)” value (zebrafish; 2 and 20 μM) was “mostly toxic”.
For `C[C@]12CC[C@@H]3c4ccc(O)cc4C[C@@H](CCCCCCCCC[S+]([O-])CCCC(F)(F)C(F)(F)F)[C@H]3[C@@H]1CC[C@@H]2O` (some centres unmarked) [ICI182,780, ICI 182,780], the “decrease … of dsRED2 mRNA” value (ERβ [1]) was > 2 fold and the “decrease of basal dsRED2 mRNA transcription” value (ERβ [1]) was > 2 fold.
In the case of `CCC(C)(c1ccc(O)cc1)c1ccc(O)cc1` [bisphenol B], the “activity in GFP-ERβ:PRL-HeLa, EPA45 batch received” value (“activity … EPA45 batch received” for short) (ERβ [2]; 2-h) is reported as “inactive” and the “activation of dsRED2, independent batch” value (ERβ [1]; independent batch of the chemical) is reported as “little activation”.
With `Oc1ccc(-c2c(-c3ccccc3)nn3c(C(F)(F)F)cc(C(F)(F)F)nc23)cc1` [PHTTP, 4-[2-phenyl-5,7-bis(trifluoromethyl)pyrazolo[1,5-a]pyrimidin-3-yl]phenol] the “ER subtype preference across array metrics” value (ERβ [2]; GFP-ERβ:PRL-HeLa vs GFP-ERα:PRL-HeLa, 2-h, 10pM to 1 μM) was “preference for ERβ”, the “decrease … of dsRED2 mRNA” value (ERβ [1]) was > 2 fold and the “decrease of basal dsRED2 mRNA transcription” value (ERβ [1]) was > 2 fold.
For `CCCCOC(=O)c1ccccc1C(=O)OCc1ccccc1` [benzylbutylphthalate], the “activity in BiFC ERβ dimerization assay” value (ERβ LBD) is listed as “hits”.
In the case of `C[C@]12CC[C@@H]3c4ccc(O)cc4CC[C@H]3[C@@H]1CC[C@@H]2O` [E2, Estradiol (17-β)], the “Liver GFP signal, number of zebrafish” value (zERβ2; 1 nM) is reported as 0, the “Liver GFP signal, number of zebrafish” value (zERβ2; 10 nM) is reported as 10 and the “Liver GFP signal, number of zebrafish” value (zERβ2; 100 nM) is reported as 12. The “Toxicity, number of zebrafish” value (zebrafish; 1 nM) was 0, the “Toxicity, number of zebrafish” value (zebrafish; 10 nM) was 0 and the “Toxicity, number of zebrafish” value (zebrafish; 100 nM) was 0. For the same molecule, the “increase of intensity of dsRED2 RNA signal at the array” value (ERβ [1]; E2 10 nM, vs DMSO) was ~3 fold, the “lowest concentration inducing GFP signal in both heart valve and liver” value [3] was 10 nM and the EC50 [4] was 3 to 5 nM.
With `CC/C(=C(\c1ccc(O)cc1)c1ccc(OCCN(C)C)cc1)c1ccccc1` [4HT, 4-Hydroxytamoxifen] the “Z-prime, Array Size” value (ERβ [2]; 384 well plates, four technical and four biological replicates) was 0.61 ± 0.13, the “change in array size vs DMSO (in words)” value (ERβ [2]; [5]) was “decreasing it” and the “change in nuclear GFP-ERβ levels (in words)” value (ERβ [2]; [5]) was “increase in GFP-ERβ signal within the nucleus”. For the same molecule, the “decrease … of dsRED2 mRNA” value (ERβ [1]) was > 2 fold, the “decrease of basal dsRED2 mRNA transcription” value (ERβ [1]) was > 2 fold and the “intensity of dsRED2 RNA signal at the array (in words)” value (ERβ [1]; 4HT 100 nM, vs DMSO) was “diminishing significantly”.
With `CC(C)(c1ccc(O)cc1)c1ccc(O)cc1` [bisphenol A] the “activity … EPA45 batch received” value (ERβ [2]; 2-h) was “inactive” and the “activity in GFP-ERβ:PRL-HeLa, independent batches” value (ERβ [2]; independent batches of the chemicals) was “confirmed activity”.
In the case of `OC(c1ccc(Cl)cc1)(c1cncnc1)c1ccccc1Cl` (centres unmarked) [fenarimol], the “activity in BiFC ERβ dimerization assay” value (ERβ LBD) is given as “hits”.
In the case of `O=C1C2(Cl)C3(Cl)C4(Cl)C(Cl)(Cl)C5(Cl)C3(Cl)C1(Cl)C5(Cl)C24Cl` (centres unmarked) [Kepone], the “Liver … with GFP signal / total” value (zERβ2; 2 μM) is reported as 0/18, the “Liver … with GFP signal / total” value (zERβ2; 20 μM) is reported as 0/18 and the “Dead/Abnormal zebrafish / total” value (zebrafish; 2 μM) is reported as 0/18. The “Dead/Abnormal zebrafish / total” value (zebrafish; 20 μM) was 0/18.
For `O=c1c(-c2ccc(O)cc2)coc2cc(O)cc(O)c12` [genistein, Genistein], the “Liver GFP signal, number of zebrafish” value (zERβ2; 1 μM) was 0, the “Liver GFP signal, number of zebrafish” value (zERβ2; 10 μM) was 12 and the “Liver GFP signal, number of zebrafish” value (zERβ2; 100 μM) was 6. The “Toxicity, number of zebrafish” value (zebrafish; 1 μM) was 0, the “Toxicity, number of zebrafish” value (zebrafish; 10 μM) was 0 and the “Toxicity, number of zebrafish” value (zebrafish; 100 μM) was 12. For the same molecule, the “tissue GFP signal (in words)” value ([3]; 1 μM) was “only heart valve signal” and the “tissue GFP signal (in words)” value ([3]; 10 μM) was “heart valve and liver signal”.
In the case of `CCC1(c2ccccc2)C(=O)NC(=O)NC1=O` [Phenobarbital sodium], the “effect” value (ERβ [2]; 2-h) is reported as “showed response in both features”, the “Liver … with GFP signal / total” value (zERβ2; 2 μM) is reported as 16/18 and the “Liver … with GFP signal / total” value (zERβ2; 20 μM) is reported as 16/18. The “activity in BiFC ERβ dimerization assay” value (ERβ LBD) was “no effect”, the “Dead/Abnormal zebrafish / total” value (zebrafish; 2 μM) was 1/18 and the “Dead/Abnormal zebrafish / total” value (zebrafish; 20 μM) was 1/18. The “Heart (zERα/hERβ), zebrafish with GFP signal / total” value (from here on “Heart … with GFP signal / total”) (zERα; 2 μM) was 17/18, the “Heart … with GFP signal / total” value (zERα; 20 μM) was 14/18 and the “tissue GFP signal (in words)” value [3, 6] was “showed GFP signal in both the liver and heart valve”.
With `C[C@]12C[C@H](O)[C@H]3[C@@H](CCC4=CC(=O)CC[C@@]43C)[C@@H]1CC[C@@H]2C(=O)CO` [Corticosterone] the “effect” value (ERβ [2]; 2-h) was “showed response in both features”, the “Liver … with GFP signal / total” value (zERβ2; 2 μM) was 18/18 and the “Liver … with GFP signal / total” value (zERβ2; 20 μM) was 16/18. For the same molecule, the “activity in BiFC ERβ dimerization assay” value (ERβ LBD) was “no effect”, the “Dead/Abnormal zebrafish / total” value (zebrafish; 2 μM) was 0/18 and the “Dead/Abnormal zebrafish / total” value (zebrafish; 20 μM) was 2/18. The “Heart … with GFP signal / total” value (zERα; 2 μM) was 18/18, the “Heart … with GFP signal / total” value (zERα; 20 μM) was 16/18 and the “tissue GFP signal (in words)” value [3, 6] was “showed GFP signal in both the liver and heart valve”.
With `CC/C(=C(/CC)c1ccc(O)cc1)c1ccc(O)cc1` [diethylstilbestrol] the “activity … EPA45 batch received” value (ERβ [2]; 2-h) was “inactive”.
